Experimental data taken from article PMC10629583, “Specific inhibition of an anticancer target, polo-like kinase 1, by allosterically dismantling its mechanism of substrate recognition” (Proceedings of the National Academy of Sciences of the …, 2023).
pIC50: −log10 of the molar value.

Key:
[1] = biological target: T1, full-length Plk1 (Homo sapiens, UniProt P53350); assay: ELISA-based PBD1-binding inhibition assay; conditions: total lysates from HEK293A cells expressing full-length Plk1; biotinylated PBIP1 p-T78 peptide; read-out: Anti-Plk1 (full length) ELISA (IC50) Mean ± SEM
T1 construct: expressed in transfected cells; host or cells: HEK293A cells infected with adenovirus; total lysate
T1 sequence (P53350 whole entry): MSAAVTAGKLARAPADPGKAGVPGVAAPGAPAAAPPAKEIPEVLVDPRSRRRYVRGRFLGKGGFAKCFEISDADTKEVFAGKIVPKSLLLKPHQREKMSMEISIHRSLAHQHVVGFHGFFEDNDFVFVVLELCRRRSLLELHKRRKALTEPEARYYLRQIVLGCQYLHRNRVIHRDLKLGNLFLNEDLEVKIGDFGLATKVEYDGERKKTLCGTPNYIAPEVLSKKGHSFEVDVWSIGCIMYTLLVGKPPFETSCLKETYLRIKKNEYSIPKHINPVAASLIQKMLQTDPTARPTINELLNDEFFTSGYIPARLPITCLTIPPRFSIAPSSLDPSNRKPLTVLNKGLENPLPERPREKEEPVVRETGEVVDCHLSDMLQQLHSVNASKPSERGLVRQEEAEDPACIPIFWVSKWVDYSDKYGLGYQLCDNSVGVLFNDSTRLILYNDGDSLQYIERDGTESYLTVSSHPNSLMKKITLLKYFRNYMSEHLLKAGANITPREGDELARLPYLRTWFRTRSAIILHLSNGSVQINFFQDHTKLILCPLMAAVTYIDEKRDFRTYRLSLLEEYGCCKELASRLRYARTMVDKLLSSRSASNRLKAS

[2] = biological target: T2, PBD1 F559E mutant (Homo sapiens, UniProt P53350, F559E); assay: FP-based binding/inhibition assay, PBD1 F559E; conditions: PBD1 F559E at EC85
T2 construct: constructs expressing PBD1 (residues 345–603) WT (pKM7650), F559D (pKM7878), F559E (pKM7879); His; TEV site (N); made in house; host or cells: bacteria (E. coli)
T2 sequence (P53350 345-603 F559E): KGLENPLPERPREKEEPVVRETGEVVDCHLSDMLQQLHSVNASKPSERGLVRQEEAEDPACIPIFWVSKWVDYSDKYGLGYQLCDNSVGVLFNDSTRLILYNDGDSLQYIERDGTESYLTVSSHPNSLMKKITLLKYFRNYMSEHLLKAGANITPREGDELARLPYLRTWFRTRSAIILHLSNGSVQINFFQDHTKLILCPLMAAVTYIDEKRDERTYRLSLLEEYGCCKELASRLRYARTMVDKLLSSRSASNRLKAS
Experimental: (§1) FP assays were carried out essentially as described previously ([35], [36]). FITC-conjugated ligands (15 nM) were mixed with PBDs at their EC85 concentrations. All the samples were analyzed approximately 30 min after reaction in a 384-well format using the SpectraMax Paradigm multimode microplate detection platform (Molecular Devices). Data were analyzed after carrying out at least three independent experiments using GraphPad Prism software version 8.
(§2) Fig. S4. Generation of F559 mutants for in vitro and cell-based assays in Fig. 4. (A) SDS-PAGE showing the proteins used for the FP assays in Fig. 4 A and B. CBB, a Coomassie Brilliant Blue– stained gel. (B) Summary of Kd and EC85 values for PBD1 WT and mutants. The Kd values for PBD1 WT and mutants were determined after extrapolating them from the binding curves as the concentration at which 50% of the FITC-Ahx-DPPLHSpTAI-NH2 are PBD1-bound. The EC85 values indicate the effective concentration of 85% of the maximal concentration calculated for each protein. The FP values were obtained 30 minutes after incubation. For the F559K and F559R mutants, we were not able to determine the EC85 values and therefore used 2 µM of these proteins for the assays in Fig. 4B. N.D., not determined. […]

[3] = biological target: T3, PBD2 S652F mutant (Homo sapiens, UniProt Q9NYY3, S652F); assay: FP-based inhibition assay, PBD2 S652F; assay type: binding
T3 construct: Purification of PBD2-His (355–685) (pKM3358) and its S652F mutant (pKM7980); His (C); made in house; host or cells: bacteria (E. coli)
T3 sequence (Q9NYY3 355-685 S652F): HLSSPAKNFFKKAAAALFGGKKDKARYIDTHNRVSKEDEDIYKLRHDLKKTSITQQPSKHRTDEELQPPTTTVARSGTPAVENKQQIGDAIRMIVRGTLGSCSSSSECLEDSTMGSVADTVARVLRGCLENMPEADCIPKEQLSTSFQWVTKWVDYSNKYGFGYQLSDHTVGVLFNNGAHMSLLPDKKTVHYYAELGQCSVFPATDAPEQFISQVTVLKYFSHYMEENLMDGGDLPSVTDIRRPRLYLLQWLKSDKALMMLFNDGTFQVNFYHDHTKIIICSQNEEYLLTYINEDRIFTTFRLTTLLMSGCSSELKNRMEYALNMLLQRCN
Experimental: as §1
Fig. S3. Sequence alignment showing unique PBD2 S652 and PBD3 A612 residues and FP-based Allopole-A inhibition assays carried out with PBD2 S652F and PBD A612F mutants. (A) Human PBD1 (Uniprot ID: P53350), PBD2 (Uniprot ID: Q9NYY3), and PBD3 (15niport ID:Q9H4B4) sequences were aligned using Clustal Omega. The polo-box cap and L1 loop regions were adjusted based on the structural superposition of PBD1 (PDB ID: 3HIK), PBD2 (PDB_ID: 4RS6), and the AlphaFold model of PBD3 (https://alphafold.ebi.ac.uk). […]
with PBD2 and MBP-PBD3 are working properly under our conditions. […] The Kd values for the indicated proteins were determined after extrapolating them from the binding curves as the […]
concentration at which 50% of FITC-conjugated ligands (FITC-GPMQTSpTPKNG for PBD2 and FITC-GPLATSpTPKNG for PBD3) (5) are protein-bound. The EC85 values indicate the effective concentration of 85% of the maximal concentration calculated for each protein. […]

[4] = biological target: T4, PBD1 F559D mutant (Homo sapiens, UniProt P53350, F559D); assay: FP-based binding/inhibition assay, PBD1 F559D; conditions: PBD1 F559D at EC85
T4 construct: constructs expressing PBD1 (residues 345–603) WT (pKM7650), F559D (pKM7878); His; TEV site (N); made in house; host or cells: bacteria (E. coli)
T4 sequence (P53350 345-603 F559D): as the sequence (P53350 345-603 F559E) above, with E215D counted along it
Experimental: as §1, §2

[5] = system: Plk1 at centrosomes and kinetochores, HeLa cells; assay: Confocal imaging of Plk1 localization in HeLa cells; assay type: cell-based; conditions: 10 μM, 2 h
Experimental: HeLa cells treated with either control DMSO or on 10 μM of Allopole for 2 h were immunostained using anti-Plk1 (F-8, sc-17783, Santa Cruz Biotechnologies), anti-Cep192 ([63]), and anti-CREST (#15-234, Antibodies Incorporated) antibodies and appropriate secondary antibodies, essentially as described previously ([62]). Samples were additionally stained with 2 µg/mL of Hoechst 33342 to reveal chromosomal morphologies. Images were captured using a Zeiss LSM 780 confocal microscope (Carl Zeiss Microscopy, LLC) equipped with plan-apochromat 40× (N.A. 1.3) and 63× (N.A. 1.4) oil-immersion objective lenses; a 34-channel GaAsP spectral detector; and 12-bit, 0.5-μm z-steps.
Confocal images of unsaturated fluorescence signals were acquired under the same laser intensity at the 12-bit resolution. Fluorescence intensities for identifiable centrosome and kinetochore signals were quantified after the maximum-intensity projection of z-stacks using the Zeiss ZEN v2.1 software (Carl Zeiss Microscopy, LLC). Data were quantified from three independent experiments.

[6] = system: U2OS cells expressing Pendo-mGFP-Plk1 F559D; assay: MTS proliferation assay, U2OS Plk1 RNAi cells expressing Plk1 F559D; assay type: cell-based; conditions: 3 to 6 μM, 36 h
Experimental: Cell viability was determined using the […] CellTiter 96® AQueous One Solution Cell Proliferation Assay (MTS) kit (Promega) containing a tetrazolium compound [3-(4,5-dimethylthiazol-2-yl)-5-(3-carboxymethoxy-phenyl)-2-(4-sulfophenyl)-2H-tetrazolium, inner salt (MTS)] and an electron-coupling phenazine ethosulfate. For the MTS assays in Fig. 1B, L363 cells cultured in a 96-well plate were treated with the indicated compounds for 48 h (the final volume of 100 μL). After the compound treatment, cells were additionally treated with 20 μL of the MTS solution and incubated at 37 °C for 2 to 4 h in a humidified 5% CO2 atmosphere. The absorbance of the resulting sample was measured at 490 nm using a PerkinElmer EnSpire Multimode 96-well plate reader. For the MTS assays in Fig. 4E, U2OS cells stably expressing either Pendo-mGFP-Plk1 WT or F559D were seeded at approximately 5,000 cells/well in a 96-well plate, depleted of endogenous Plk1 by RNAi, and then treated with either control DMSO or Allopole as indicated in the schematic diagram in SI Appendix, Fig. S4E.

| SMILES | pIC50 [1] | Inhibition of FITC-phosphopeptide binding (in words) [2] | Inhibition in FP assay (in words) [3] | Inhibition of FITC-phosphopeptide binding (in words) [4] | Plk1 signals localized at centrosomes and kinetochores (in words) [5] | Proliferation (in words) [6] |
| --- | --- | --- | --- | --- | --- | --- |
| O=c1c2sc(Cl)cc2n2c(=S)[nH]nc2n1CC1CC1 [Allopole-A] | 5.85 | failed to inhibit | not inhibitable | failed to inhibit |  |  |
| Cn1cnc([N+](=O)[O-])c1Sc1nnc2n(CC3CC3)c(=O)c3sc(Cl)cc3n12 [Allopole] |  |  |  |  | greatly diminished | uninhibited proliferation |
